Measurements: patent EP4656642A1, “ESTROGEN RECEPTOR PROTEOLYSIS TARGETING CHIMERA COMPOUND AND USE THEREOF” (GAN & LEE PHARM CO., LTD, priority 2023, dated 2024)

Columns and labels:
Type in all cases: cell-based
[1] = target: T1, ERα (Homo sapiens, UniProt P03372); assay: Degradation of ERα in T-47D cells (immunoblotting, 4 h); design: host or cells: T-47D
T1 sequence (P03372 1-595): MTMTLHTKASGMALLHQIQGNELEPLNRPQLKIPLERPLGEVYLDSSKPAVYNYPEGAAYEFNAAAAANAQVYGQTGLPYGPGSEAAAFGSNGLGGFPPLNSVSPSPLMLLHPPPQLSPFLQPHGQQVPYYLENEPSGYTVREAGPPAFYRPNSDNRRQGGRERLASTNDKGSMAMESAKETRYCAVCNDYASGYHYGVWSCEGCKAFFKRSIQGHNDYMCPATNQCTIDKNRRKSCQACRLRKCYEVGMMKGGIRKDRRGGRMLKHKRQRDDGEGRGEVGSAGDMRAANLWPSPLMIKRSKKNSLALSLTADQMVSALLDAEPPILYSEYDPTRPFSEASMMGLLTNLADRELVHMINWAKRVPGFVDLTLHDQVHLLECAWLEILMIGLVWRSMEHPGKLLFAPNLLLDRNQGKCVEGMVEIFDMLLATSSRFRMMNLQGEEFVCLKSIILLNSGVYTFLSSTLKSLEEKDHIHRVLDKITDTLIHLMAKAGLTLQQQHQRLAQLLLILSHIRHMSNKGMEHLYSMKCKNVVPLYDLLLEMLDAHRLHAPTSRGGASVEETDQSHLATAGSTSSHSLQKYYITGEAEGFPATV
Method in brief: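 T-47D cells were treated with compound (final 0.15-1000 nM, DMSO) for 4 h at 37°C, 5% CO2. Cells were lysed in RIPA buffer with protease inhibitor, and ERα protein in the cleared lysate was measured by immunoblotting.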

[2] = tested on: T-47D cells; assay: Inhibition of cell proliferation in T-47D cells (CCK-8, 6 days); conditions: 6 days of treatment, Table 3
Method in brief: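 T-47D cells at 3,000 cells/well in RPMI 1640 with 10% FBS were exposed to a concentration series of PROTAC compounds for 6 days at 37 °C, 5% CO2. Viability was read by CCK-8, and IC50 values were derived for proliferation inhibition.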

[3] = tested on: MCF-7 cells; assay: Inhibition of cell proliferation of MCF-7 cells (CCK-8, 9 days); conditions: treated for 9 days, CCK-8 kit (Table 6)
Method in brief: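 MCF-7 cells seeded at 800 cells/well in DMEM with 10% FBS, exposed to a range of compound concentrations for 9 days at 37°C, 5% CO2. Viability read by CCK-8; IC50 derived for proliferation inhibition.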

[4] = target: T1, ERα; assay: Degradation of ERα in MCF-7 cells (immunoblotting, 4 h)
Method in brief: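 MCF-7 cells treated 4 h at 37°C with compounds at 0.15-1000nM final. ERα in lysates measured by immunoblot, with band grayscale normalized to an internal reference protein. Degradation rate calculated against DMSO-treated control.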

| SMILES | Degradation rate (%) of ERα in T-47D cells ([1]; 1nM compound) | Degradation rate (%) of ERα in T-47D cells ([1]; 10nM compound) | IC50 [2] | IC50 [3] | Degradation rate (%) of ERα in MCF-7 cells ([4]; 1nM compound) | Degradation rate (%) of ERα in MCF-7 cells ([4]; 10nM compound) |
| --- | --- | --- | --- | --- | --- | --- |
| O=C1CCC(N2Cc3cc4c(cc3C2=O)CCC2(CN(CC3CC5(CCN(c6ccc([C@@H]7c8ccc(O)cc8CC[C@@H]7c7ccccc7)cc6)CC5)C3)C2)O4)C(=O)N1 (stereo partly drawn) [B12] | -17% | -4% | 0.033 µM | 0.95 µM | -8% | -11% |
| O=C1CCC(N2Cc3cc4c(cc3C2=O)CCC2(CN(C3CCC(N5CCN(c6ccc([C@@H]7c8ccc(O)cc8CC[C@@H]7c7ccccc7)cc6)CC5)CC3)C2)O4)C(=O)N1 (stereo partly drawn) [B15] | -4% | 3% | 0.0317 µM | 0.0483 µM | -13% | -18% |
| C[C@H]1CN(c2ccc([C@@H]3c4ccc(O)cc4CC[C@@H]3c3ccccc3)cc2)CCN1C[C@H]1CC[C@H](C(=O)N2CCC3(CC2)COc2c3ccc3c2CN(C2CCC(=O)NC2=O)C3=O)CC1 (stereo partly drawn) [B36] | 54% | 68% | 0.00103 µM | 21.7 µM | 55% | 55% |
| CC1(CN2CCC3(CC2)COc2c3ccc3c2CN(C2CCC(=O)NC2=O)C3=O)CCN(CC2CCN(c3ccc([C@@H]4c5ccc(O)cc5CC[C@@H]4c4ccccc4)cc3)CC2)CC1 (stereo partly drawn) [B37] | 12% | 36% | 0.00854 µM | 2.8 µM | 11% | 41% |
| C[C@@H]1Cc2c(ccc3[nH]ncc23)[C@@H](c2c(F)cc(N3CCC(C(=O)N4CCC(N5CCC6(CC5)COc5c6ccc6c5CN(C5CCC(=O)NC5=O)C6=O)CC4)CC3)cc2F)N1CC(F)F (stereo partly drawn) [B38] | 57% | 63% | 0.00123 µM | 0.0905 µM | 63% | 57% |
| O=C1CCC(N2Cc3c(ccc4c3OCC43CCN(C(=O)c4ccc(CN5CCN(c6ccc([C@@H]7c8ccc(O)cc8CC[C@@H]7c7ccccc7)cc6)CC5)cc4)CC3)C2=O)C(=O)N1 (stereo partly drawn) [B39] | 47% | 66% | 0.00183 µM | 25.1 µM | 41% | 49% |
| C[C@@H]1CN(C(=O)C2CCN(c3cc(F)c(C4c5ccc6[nH]ncc6c5C[C@@H](C)N4CC(F)F)c(F)c3)CC2)CCC1N1CCC2(CC1)COc1c2ccc2c1CN(C1CCC(=O)NC1=O)C2=O (stereo partly drawn) [B40] | 64% | 68% | 0.001 µM | 0.0453 µM | 54% | 61% |
| O=C1CCC(N2Cc3c(ccc4c3OCC43CCN(C(=O)c4ccc(CN5CCN(c6ccc([C@@H]7c8ccc(O)cc8CC[C@@H]7c7ccccc7)cc6)CC5)cn4)CC3)C2=O)C(=O)N1 (stereo partly drawn) [B41] | 66% | 74% | 0.00075 µM | 29.2 µM | 59% | 53% |
| C[C@@H]1Cc2c(ccc3[nH]ncc23)C(c2ccc(N3CCC(C(=O)N4CCC(N5CCC6(CC5)COc5c6ccc6c5CN(C5CCC(=O)NC5=O)C6=O)CC4)CC3)cn2)N1CC(F)(F)F (stereo partly drawn) [B42] | 3% | 13% | 2.46 µM | 90.9 µM | 17% | 26% |

Next, values leading:

| Degradation rate (%) of ERα in T-47D cells ([1]; 1nM compound) | Degradation rate (%) of ERα in T-47D cells ([1]; 10nM compound) | IC50 [2] | IC50 [3] | Degradation rate (%) of ERα in MCF-7 cells ([4]; 1nM compound) | Degradation rate (%) of ERα in MCF-7 cells ([4]; 10nM compound) | SMILES |
| --- | --- | --- | --- | --- | --- | --- |
| 57% | 80% | 0.00404 µM | 0.232 µM | 54% | 62% | CCN(C1CCN(c2ccc([C@@H]3c4ccc(O)cc4CC[C@@H]3c3ccccc3)cc2)CC1)[C@H]1CC[C@@H](C(=O)N2CCC3(CC2)COc2c3ccc3c2CN(C2CCC(=O)NC2=O)C3=O)CC1 (stereo partly drawn) [B43] |
| 59% | 65% | 0.00129 µM | 27.1 µM | 28% | 33% | O=C1CCC(N2Cc3c(ccc4c3OCC43CCN(C(=O)c4ccc(CN5CCN(c6ccc([C@@H]7c8ccc(O)cc8CC[C@@H]7c7ccccc7)cc6)CC5)nc4)CC3)C2=O)C(=O)N1 (stereo partly drawn) [B47] |
| 61% | 80% | 0.00435 µM | 0.0335 µM | 63% | 74% | O=C1CCC(N2Cc3c(ccc4c3OCC43CCN(C(=O)[C@H]4CC[C@@H](N(CC5CC5)C5CCN(c6ccc([C@@H]7c8ccc(O)cc8CC[C@@H]7c7ccccc7)cc6)CC5)CC4)CC3)C2=O)C(=O)N1 (stereo partly drawn) [B48] |
| 42% | 68% | 0.316 µM | 7.15 µM | 24% | 43% | C[C@@H]1Cc2c(ccc3[nH]ncc23)C(c2ccc(N3CC4(CCC(N5CCC6(CC5)COc5c6ccc6c5CN(C5CCC(=O)NC5=O)C6=O)CC4)C3)cn2)N1CC(F)(F)F (stereo partly drawn) [B49] |
| 50% | 72% | 0.00115 µM | 0.00805 µM | 18% | 49% | O=C1CCC(N2Cc3c(ccc4c3OCC43CCN(C4CCN(C(=O)C5CCN(c6ccc([C@@H]7c8ccc(O)cc8CC[C@@H]7c7ccccc7)cc6)CC5)[C@@H](C(=O)N5CCC(F)(F)CC5)C4)CC3)C2=O)C(=O)N1 (stereo partly drawn) [C1] |
| 49% | 81% | 0.00168 µM | 0.0311 µM | 42% | 63% | O=C1CCC(N2Cc3c(ccc4c3OCC43CCN(C4CCN(C(=O)C5CCN(c6ccc([C@@H]7c8ccc(O)cc8CC[C@@H]7c7ccccc7)cc6)CC5)[C@@H](C(=O)N5CCC(F)(F)C5)C4)CC3)C2=O)C(=O)N1 (stereo partly drawn) [C2] |
| 54% | 85% | 0.00117 µM | 0.067 µM | 38% | 75% | O=C1CCC(N2Cc3c(ccc4c3OCC43CCN(C4CCN(C(=O)C5CCN(c6ccc([C@@H]7c8ccc(O)cc8CC[C@@H]7c7ccccc7)cc6)CC5)[C@@H](C(=O)N5CC(F)(F)C5)C4)CC3)C2=O)C(=O)N1 (stereo partly drawn) [C4] |
| 52% | 77% | 0.0013 µM | 0.0067 µM | 43% | 66% | O=C1CCC(N2Cc3c(ccc4c3OCC43CCN(C(=O)C4CCC(CN5CCN(c6ccc(C7c8ccc(O)cc8CCC7c7ccccc7)cc6)CC5)CC4)CC3)C2=O)C(=O)N1 (stereo not drawn) [C5] |
